This note sets out measurements from patent US20100249373A1, “SCREENING METHODS” (priority 2007, published 2010).

In series [1] the test system is lightly pigmented human melanocytes. Description: Quantitative assessment of melanogenesis (melanin content) after siRNA knockdown. The format is cell-based. The note with it: replicated x3, FIG. 27. How it is done: FIG. 27—Quantitative assessment of melanogenesis. A decrease in post-treatment melanin content is noted for duplex (492) in lightly pigmented human melanocytes (replicated ×3).
To each pellet of melanin+cell debris obtained in section 2), 0.5 ml of diethyl ether:ethanol (1:1 ratio) was added. Eppendorfs were vortexed vigorously for 30 seconds and centrifuged at 13000 g for 5 minutes. The ether layer was carefully removed to waste and a further 0.5 ml was added. The tubes were agitated and centrifuged as before. The liquid phase was again removed and the melanin pellets were allowed to air dry at room temperature for 10 minutes. Melanin pellets were solubilised by the addition of 200 μl of 1M NaOH+10% DMSO and incubation (with occasional agitation) at 50° C. for 1 hour. 80 μl aliquots of each sample were transferred to a 96-well microtitre plate in duplicate. OD^450 of each sample was determined and the melanin content of each fraction was calculated from a synthetic melanin standard curve, prepared as described above. In treatment comparisons, results were expressed as μg melanin per μg protein.
Primary human melanocytes isolated from lightly pigmented or darkly pigmented neonatal foreskin were obtained from Cascade Biologics. Melanocyte Growth Medium (MGM) refers to Medium 254 (Cascade Biologics) supplemented with HMGS (Cascade Biologics). […]

The next series concerns NCKX5. As to the kind of experiment: Western blot of NCKX5 protein after siRNA knockdown in human melanocytes. The format is cell-based. The note with it: 5 days after siRNA mediated knockdown; anti C-terminus pAb; FIG. 28. The procedure:
FIG. 28—Western blot analysis of NCK5 after knockdown. Using Western blotting we have investigated NCKX5 protein expression 5 days after siRNA mediated knockdown (all 5 siRNA duplexes and controls were tested). Western blot was also used to evaluate the expression and processing (maturation) of tyrosinase (tyr) in the same samples. SDS-PAGE (10% PA for NCKX5, 4-12% for tyr, 5 μg protein/lane). A) Western blot for NCKX5: Detection via rabbit anti-NCKX5 pAb (anti C-terminus peptide). B) Western blot for tyr, via goat pAb (Santa Cruz). 1=No treatment, 2=scrambled siRNA control, 3-7=siRNA's 185, 260, 301, 492, 1110. […] These bands are absent in the samples where SLC24A5-specific duplexes were used (lanes 3-7). It is possible that the doublet represents the presence of alternate SLC24A5 splice variants.
Cultured Cells (trypsinised off of 6-well culture plates) were lysed on ice for 20 minutes in 1.5 ml eppendorfs using 100 μl per sample of 1% triton X-100 in dPBS containing protease inhibitor cocktail (Sigma-Aldrich, Poole, UK). Cell extracts were centrifuged (10 minutes at 13000 g) to separate melanin and cell debris from the solubilised protein. The protein concentration of each supernatant fraction was determined by BCA assay as described in A).
20 μg protein (as determined by BCA assay) was reconstituted into 20 μl of 1×LDS loading buffer (Invitrogen Ltd, Paisley, UK) containing 1× reducing agent (Invitrogen Ltd, Paisley, UK), heated to 40° C. for 30 minutes and loaded onto 10% Novex bis-tris acrylamide gels with 1×MOPS running buffer (Invitrogen Ltd, Paisley, UK). Kaleidoscope molecular weight markers (Bio-Rad Laboratories Ltd, Hemel Hempstead, UK) were run alongside samples for size determinations. Protein was transferred onto PVDF membrane by electrophoresis transfer, using a Bio-Rad mini-cell II trans-blotter and 1×Tris-Glycine transfer buffer (Invitrogen Ltd, Paisley, UK)+15% v/v methanol (100V for 1 hour).
Membranes containing transferred protein were “blocked” using 2% w/v skimmed milk protein (SMP) in PBS+0.05% tween20 (PBST) for 1 hour with gentle agitation. Peptide affinity purified rabbit polyclonal antibody (raised using a peptide equivalent to the C-terminus of NCKX5—GNNKIRGCGG) was diluted to 0.5 μg/ml using 2% SMP in PBST. The diluted antibody was incubated with the membrane for 2 hours at room temperature. The membrane was then rinsed with PBST (4×5 minutes washes). Peroxidase conjugated anti-rabbit IgG (Jackson ImmunoResearch Laboratories Inc. PA, USA) was diluted 1/4000 using 2% SMP in PBST and was incubated with the membranes for 1 hour. Finally, membranes were washed using 6×5 minute rinses with PBST. […]
(Immunoblotting shows a protein as a band on a membrane.)

In the case of “492 (sense GCACCATCCTTGGATCTGCAATTTA; antisense CGTGGTAGGAACCTAGACGTTAAAT; chemistry not given here; one strand is listed 3' to 5') [compound 492]”, the post-treatment melanin content result in series [1] is on record as “decrease”. Further, the “NCKX5 Western blot bands of approx. 42 and 44 kDa” value (“NCKX5 Western blot bands” below) in the series with NCKX5 is given as “absent”. Take “301 (sense CGTTTACATGTTCATGGCCATATCT; antisense GCAAATGTACAAGTACCGGTATAGA; chemistry not given here; one strand is listed 3' to 5') [compound 301]”: the “NCKX5 Western blot bands” value with NCKX5 is reported as “absent”. Same read-out and setting: next, “260 (sense GAGCGCAGAGATGGAGGCATCATAA; antisense CTCGCGTCTCTACCTCCGTAGTATT; chemistry not given here; one strand is listed 3' to 5') [compound 260]”: “absent”.

With “185 (sense AGGGCCACAGGAAATAGCACCCAAT; antisense TCCCGGTGTCCTTTATCGTGGGTTA; chemistry not given here; one strand is listed 3' to 5') [compound 185]”, the “NCKX5 Western blot bands” value in the series on NCKX5 is on record as “absent”.
